Values after ≈ are worked out from the molar mass of the structure shown. Where two headings read alike, the source gives them in different places.
Experiments:
M. smegmatis SZ380 = assay: MIC by broth microdilution, M. smegmatis; details: Mycolicibacterium smegmatis
[1] = tested on: rabbit reticulocyte ribosomes; assay: in-vitro translation assay, rabbit reticulocyte ribosomes; type: biochemical; details: mammalian cytosolic ribosomes (rabbit)
[2] = tested on: Enterobacter cloacae AG290; assay: MIC by broth microdilution, Enterobacter cloacae; type: cell-based; details: strain AG290 Enterobacter cloacae; for MIC: read-out: MIC AG290 E. cloacae
[3] = tested on: A1555G mutant mitochondrial ribosome (human chimeric); assay: in-vitro translation assay, human chimeric ribosomes, A1555G mutant mitochondrial decoding site; type: biochemical; details: human mitochondrial decoding site with A1555G point mutation; read-out: IC50 Mitoch. A1555G
Text: (§1) The antiribosomal activity of these compounds was investigated with cell-free translation assays using both wild type bacterial ribosomes and hybrid ribosomes carrying eukaryotic decoding A sites enabling the prediction of selectivity.

[4] = tested on: E coli carrying specific resistance determinants; assay: MIC by broth microdilution, E coli carrying specific resistance determinants; type: cell-based; details: for MIC: Escherichia coli
[5] = tested on: Klebsiella pneumonia AG215; assay: MIC by broth microdilution, Klebsiella pneumonia; type: cell-based; details: strain AG215 Klebsiella pneumonia; for MIC: Klebsiella pneumoniae, read-out: MIC AG215 K. pneumon
[6] = tested on: Acinetobacter baumannii pittii AG225; assay: MIC by broth microdilution, Acinetobacter baumannii; type: cell-based; details: strain AG225 Acinetobacter baumannii pittii
M. abscessus = assay: MIC by broth microdilution, M. abscessus; type: cell-based; details: Mycobacteroides abscessus
E coli wild type = assay: MIC by broth microdilution, wild type E coli; type: cell-based; details: for MIC: Escherichia coli
[7] = tested on: wild type bacterial ribosomes; assay: in-vitro translation assay, bacterial ribosomes; type: biochemical
Text: as §1

[8] = tested on: mitochondrial ribosome (human chimeric); type: biochemical
Text: as §1

[9] = tested on: cytosolic ribosome (human chimeric); type: biochemical
Text: as §1

P aeruginosa = assay: MIC by broth microdilution, P aeruginosa isolates; type: cell-based, Pseudomonas aeruginosa
MRSA = assay: MIC by broth microdilution, MRSA isolates; type: cell-based; details: Staphylococcus aureus, MRSA
N. gonorrhoeae = assay: Disk diffusion, N. gonorrhoeae; type: cell-based
[10] = SZ380, read-out: MIC SZ380 M. smegmatis, strain SZ380 Mycobacterium smegmatis
[11] = read-out: MIC AG037 E. coli APH(3′)-III
[12] = read-out: MIC AG163 E. coli APH(3′)-I
[13] = read-out: MIC AG166 E. coli APH(3′)-II
[14] = read-out: MIC pH421 E. coli APH(3′)-I
[15] = read-out: MIC pH422 E. coli APH(3′)-II
[16] = read-out: MIC pH423 E. coli APH(3′)-VI
[17] = ATCC25922, strain AG212 E. coli (ATCC25922), read-out: MIC AG212 E. coli
[18] = clinical isolate AG160 WT, Table 2 (Example 4), read-out: MIC AG160 E. coli WT
[19] = engineered strain pH430 WT, Table 2 (Example 4), read-out: MIC pH430 E. coli WT

Which results are given for `NC[C@H]1O[C@H](O[C@H]2[C@H](O[C@@H]3O[C@H](CO)[C@@H](O)[C@H]3O)[C@@H](O)[C@H](N)C[C@@H]2N)[C@H](N)[C@@H](O)[C@@H]1O` [Ribostamycin, ribostamycin, reference compound]?
MIC (M. smegmatis SZ380; SZ380, read-out: MIC M. smegmatis SZ380 WT, SZ380 WT, Table 5 (Example 3)): 8 µg/mL (≈ 17.6 µM); MIC (M. smegmatis SZ380; [10]): 8 µg/mL (≈ 17.6 µM); IC50 [1]: 172 µM; MIC [2]: 4 µg/mL (≈ 8.8 µM); IC50 [3]: 68 µM; MIC ([4]; read-out: MIC AG003 E. coli AAC(3)-II): 4 µg/mL (≈ 8.8 µM); MIC [4, 11]: 32 to 64 µg/mL (≈ 70.4 to 141 µM); MIC [4, 12]: > 128 µg/mL; MIC [4, 13]: > 128 µg/mL; MIC ([4]; read-out: MIC APH(3)-VI): > 64 µg/mL; MIC ([4]; read-out: MIC APH(3′)-I): > 64 µg/mL; MIC ([4]; read-out: MIC APH(3′)-II): > 64 µg/mL; MIC ([4]; read-out: MIC APH(3′)-III): 32 to 64 µg/mL (≈ 70.4 to 141 µM); MIC ([4]; read-out: MIC E. coli AG106 AAC(2′)-Ia): 128 µg/mL (≈ 282 µM); MIC ([4]; read-out: MIC E. coli pGB2armA armA): 2 µg/mL (≈ 4.4 µM); MIC ([4]; read-out: MIC E. coli pH434 AAC(2′)-Ib): > 128 µg/mL; MIC [4, 14]: > 128 µg/mL; MIC [4, 15]: 128 to 256 µg/mL (≈ 282 to 563 µM); MIC [4, 16]: > 128 µg/mL; MIC [5]: 2 µg/mL (≈ 4.4 µM); MIC [6]: 4 µg/mL (≈ 8.8 µM); MIC (M. abscessus; ATCC19977, ATCC 19977 WT, Table 5 (Example 3), read-out: MIC M. abscessus ATCC 19977 WT): 128 µg/mL (≈ 282 µM); MIC (M. abscessus; read-out: MIC M. abscessus clinical isolate): 128 µg/mL (≈ 282 µM); MIC (M. abscessus; read-out: MIC M. abscessus engineered Δeis2): 32 µg/mL (≈ 70.4 µM); MIC (E coli wild type; [17]): 4 µg/mL (≈ 8.8 µM); MIC (E coli wild type; WT, Table 3 (Example 1), read-out: MIC WT): 2 µg/mL (≈ 4.4 µM); MIC (E coli wild type; WT, Table 5 (Example 3), read-out: MIC E. coli WT): 2 µg/mL (≈ 4.4 µM); MIC (E coli wild type; clinical isolate AG001, WT, read-out: MIC AG001 E. coli WT): 4 µg/mL (≈ 8.8 µM); MIC (E coli wild type; clinical isolate AG055, WT, read-out: MIC AG055 E. coli WT): 2 µg/mL (≈ 4.4 µM); MIC (E coli wild type; [18]): 4 µg/mL (≈ 8.8 µM); MIC (E coli wild type; [19]): 2 µg/mL (≈ 4.4 µM); IC50 ([7]; Mycobacterium smegmatis ribosomes, read-out: IC50 Bacterial): 0.09 µM; IC50 ([7]; bacterial ribosome, Table 3 (Example 1), read-out: IC50 Bac): 0.09 µM; IC50 ([8]; mitochondrial, Table 3 (Example 1), read-out: IC50 Mit): 443 µM; IC50 ([8]; ribosomes with a human mitochondrial decoding site, read-out: IC50 Mitoch.): 443 µM; IC50 ([9]; cytosolic, Table 3 (Example 1), read-out: IC50 Cyt): 484 µM; IC50 ([9]; ribosomes with a human cytosolic decoding site, read-out: IC50 Cytosolic): 484 µM; MIC (P aeruginosa; Pseudomonas aeruginosa, ATCC27853, read-out: MIC AG220 P. aerugin): > 128 µg/mL; MIC (P aeruginosa; Pseudomonas aeruginosa, read-out: MIC AG031 P. aer. APH(3′)-II): > 128 µg/mL; MIC (P aeruginosa; Pseudomonas aeruginosa, read-out: MIC AG032 P. aer. APH(3′)-II): > 128 µg/mL; MIC (MRSA; read-out: MIC AG039 MRSA AAC(6′)-I ANT(4′)-I): > 128 µg/mL; MIC (MRSA; read-out: MIC AG042 MRSA AAC(6′)-I ANT(4′)-I APH(2′)): > 128 µg/mL; MIC (MRSA; clinical isolate AG038, read-out: MIC AG038 MRSA): 4 µg/mL (≈ 8.8 µM); MIC (MRSA; clinical isolate AG044, read-out: MIC AG044 MRSA): 8 µg/mL (≈ 17.6 µM)

`CCC[C@@H]1C(CO)O[C@H](O[C@@H]2C(N)C[C@@H](N)C(O)[C@H]2O[C@@H]2O[C@H](CO)[C@H](O[C@H]3OC(CN)[C@@H](O)C(O)C3N)C2O)[C@@H](N)C1O` (stereo partly shown) [Compound 079] was tested. Which MIC (M. smegmatis SZ380; [10]) did it give?
Its MIC is 0.5 µg/mL (≈ 0.779 µM).

And the MIC [2]?
The MIC was 0.5 µg/mL (≈ 0.779 µM).

What about the MIC [4, 11] of the same molecule?
The MIC was over 64 µg/mL.

What about the MIC [4, 12] of the same molecule?
Its MIC is over 64 µg/mL.

What about the MIC [4, 13] of the same molecule?
Its MIC is 1 to 2 µg/mL (≈ 1.56 to 3.12 µM).

What about the MIC [4, 14] of the same molecule?
The MIC was over 32 µg/mL.

What about the MIC [4, 15] of the same molecule?
The MIC was 4 µg/mL (≈ 6.23 µM).

What about the MIC [4, 16] of the same molecule?
The MIC was 1 µg/mL (≈ 1.56 µM).

And the MIC [5]?
The MIC was 0.5 µg/mL (≈ 0.779 µM).

And the MIC [6]?
Its MIC is 1 to 2 µg/mL (≈ 1.56 to 3.12 µM).

What about the zone of inhibition at 25 nmol/disc (N. gonorrhoeae; Neisseria gonorrhoeae) of the same molecule?
The zone of inhibition at 25 nmol/disc was 16 mm.

And the MIC (E coli wild type; [17])?
Its MIC is 1 µg/mL (≈ 1.56 µM).

What about the MIC (E coli wild type; [18]) of the same molecule?
The MIC was 1 µg/mL (≈ 1.56 µM).

What about the MIC (E coli wild type; [19]) of the same molecule?
Its MIC is 0.5 µg/mL (≈ 0.779 µM).

And the MIC (P aeruginosa; strain AG220 Pseudomonas aeruginosa ATCC27853, read-out: MIC AG220 P. aerugin)?
The MIC was 4 µg/mL (≈ 6.23 µM).

For `CCC[C@@H]1C(CO)O[C@H](O[C@@H]2C(N)C[C@@H](NC(=O)[C@@H](O)CCN)C(O)[C@H]2O[C@@H]2O[C@H](CO)[C@H](O[C@H]3C[C@@H](CN)[C@@H](O)C(O)C3N)C2O)[C@@H](N)C1O` (stereo partly shown) [Compound 187], which “MIC AG290 E. cloacae” value [2] is on record?
Its value is 0.5 to 1 µg/mL.

And the “MIC AG163 E. coli APH(3′)-I” value ([4]; clinical isolate AG163 APH(3′)-I, Table 2 (Example 4))?
The value was 2 µg/mL (≈ 2.7 µM).

What about the “MIC AG166 E. coli APH(3′)-II” value ([4]; clinical isolate AG166 APH(3′)-II, Table 2 (Example 4)) of the same molecule?
Its value is 2 µg/mL (≈ 2.7 µM).

What about the “MIC AG037 E. coli APH(3′)-III” value ([4]; engineered strain AG037 APH(3′)-III, Table 2 (Example 4)) of the same molecule?
Its value is 8 µg/mL (≈ 10.8 µM).

And the “MIC pH421 E. coli APH(3′)-I” value ([4]; engineered strain pH421 APH(3′)-I, Table 2 (Example 4))?
Its value is 4-8 μg/ml.

And the “MIC pH422 E. coli APH(3′)-II” value ([4]; engineered strain pH422 APH(3′)-II, Table 2 (Example 4))?
The value was 0.5-1 μg/ml.

What about the “MIC pH423 E. coli APH(3′)-VI” value ([4]; engineered strain pH423 APH(3′)-VI, Table 2 (Example 4)) of the same molecule?
Its value is 1 μg/ml.

What about the “MIC AG215 K. pneumon” value [5] of the same molecule?
Its value is 0.5 µg/mL (≈ 0.675 µM).

And the “MIC AG225 A. baumannii” value [6]?
The value was 2 µg/mL (≈ 2.7 µM).

What about the “Disk diffusion 25 nmol N. gonorrhoeae” value (N. gonorrhoeae; 25 nmol) of the same molecule?
The value was 11 mm.

And the “MIC AG160 E. coli WT” value (E coli wild type; clinical isolate AG160 WT, Table 2 (Example 4))?
Its value is 2 µg/mL (≈ 2.7 µM).

And the “MIC pH430 E. coli WT” value (E coli wild type; engineered strain pH430 WT, Table 2 (Example 4))?
Its value is 0.5-1 μg/ml.

And the “MIC AG212 E. coli” value (E coli wild type; strain AG212 E. coli (ATCC25922))?
Its value is 2 µg/mL (≈ 2.7 µM).

And the “MIC AG220 P. aerugin” value (P aeruginosa; strain AG220 Pseudomonas aeruginosa ATCC27853)?
Its value is 2 to 4 µg/mL.

From US11466044B2 (WAYNE STATE UNIVERSITY, priority 2017, dated 2022)
